Experimental data from US5817828A, “Pyrazole derivatives” (Nissan Chemical Industries, Ltd., priority 1993, dated 1998).

How the values were obtained:
[1] = tested on: Angiotensin II (AT2) Receptor; test: Test for Inhibition of Binding to Angiotensin II (AT2) Receptor; conditions: 10^-6 M compound; 0.1 nM ^125 I-AngII; bovine brain specimen; 37° C., 30 minutes
Procedure: Test for Inhibition of Binding to Angiotensin II (AT2) Receptor:
The effect of the compounds of the present invention for inhibiting the binding activity of Angiotensin II (AngII) to the bovine brain receptor were tested, according to the method by J. P. Bennett, Jr. et al. [J. Biol. Chem., 251, 7423-7430 (1976)].
10^-6 M of the compound of the present invention to be tested was added to an aqueous solution containing a predetermined amount of a bovine brain specimen and 0.1 nM of ^125 I-AngII and incubated at 37° C. for 30 minutes. The resulting solution was separated through a glass fiber filter to terminate the reaction. The radioactivity bonded to the filter was quantified by a γ-counter.

angiotensin II (AngII) = test: Test for Antagonistic Effect against Angiotensin (inhibition of AngII contraction of rabbit thoracic aorta ring); type: cell-based; conditions: Oryctolagus cuniculus, AngII 10^-8 M, corrected using DMSO, read-out: Percentage of Inhibition of Contraction; for inhibition at 0.1 µM: 1 × 10^-7 M compound; for inhibition at 0.01 µM: 1 × 10^-8 M compound
Procedure: Test for Antagonistic Effect against Angiotensin:
A rabbit was sacrificed while anesthetized with pentobarbital, and immediately its thoracic aorta was removed. This was cut into a ring specimen, kept at 37° C. and hung in a nutrient liquid (Krebs-Henseleit solution) aerated with a mixed gas comprising 95% oxygen and 5% carbon dioxide, whereupon its isometric contraction was measured. The specimen was equilibrated for one hour, with replacement of the nutrient liquid every 20 minutes, and thereafter angiotensin II (AngII: 10^-8 M) was applied thereto to cause its contraction. To evaluate the effect of the compounds of the present invention, the compound to be tested (10^-7 M or 10^-8 M) was applied as pre-treatment to the specimen in 20 minutes before the fourth application of AngII thereto, the percentage of inhibiting the contraction caused by AngII was obtained on the basis of the third contraction caused by AngII of being 100%. The percentage was corrected, using dimethylsulfoxide (DMSO).

[2] = tested on: spontaneous hypertensive male rat; test: Test for Hypotensive Effect (oral, spontaneous hypertensive rat); type: in vivo; conditions: 30 mg/kg, spontaneous hypertensive male rat (10-week age)
Procedure: Test for Hypotensive Effect
The compounds of the present invention to be tested were dissolved in a physiological saline solution and was orally administered to a spontaneous hypertensive male rat (10-week age). The blood pressure of the rat was measured, via a pressure transducer through the catheter that had previously been introduced into its aorta from its femoral artery. The variation in the blood pressure was observed from before the application of the compound to 20 hours after the application thereof.

Compound	Percentage of Inhibition [1]	inhibition at 0.1 µM (angiotensin II (AngII))	inhibition at 0.01 µM (angiotensin II (AngII))	Time after the administration at which the largest percentage of blood pressure depression was obtained [2]	Largest Percentage of Blood Pressure Depression ([2]; observed to 20 hours)
CCCN(Cc1ccc(-c2ccccc2-c2nnn[nH]2)cc1)c1nn(CCc2ccccc2)c(Br)c1C(=O)O [compound 4]	55.1%	85%	40%	10 h	29.6%
CCCN(Cc1ccc(-c2ccccc2-c2nnn[nH]2)cc1)c1nn(CCc2ccccc2)c(-c2ccc(OC)cc2)c1C(=O)O [compound 64]	–	92%	29%	–	–
CCCN(Cc1ccc(-c2ccccc2-c2nnn[nH]2)cc1)c1nn(CCc2ccccc2)c(-c2cccs2)c1C(=O)O [compound 68]	–	35%	18%	–	–
CCCN(Cc1ccc(-c2ccccc2-c2nnn[nH]2)cc1)c1nn(CCc2ccccc2)c(-c2ccccc2)c1C(=O)O [compound 61]	–	77%	34%	–	–
CCCN(Cc1ccc(-c2ccccc2-c2nnn[nH]2)cc1)c1nn(CCc2ccccc2)c(-c2cccc(Br)n2)c1C(=O)O [compound 67]	–	35%	13%	–	–
CCCN(Cc1ccc(-c2ccccc2-c2nnn[nH]2)cc1)c1nn(CCc2ccccc2)c(Cl)c1C(=O)O [compound 56]	–	84%	51%	–	–
CCCNc1c(C(=O)O)c(N(CCC)Cc2ccc(-c3ccccc3-c3nnn[nH]3)cc2)nn1CCc1ccccc1 [compound 72]	–	15%	7%	–	–
CCCN(Cc1ccc(-c2ccccc2-c2nnn[nH]2)cc1)c1nn(CCc2ccccc2)c(C(=O)c2ccccc2)c1C(=O)O [compound 71]	–	36%	14%	–	–
